Laboratory results reported in the NIST ThermoML archive (doi:10.1016/j.tca.2014.03.033).
Numbers after ± are expanded uncertainties.

Test: molar heat capacity at constant pressure
Settings: 101.33 kPa, Crystal, Vacuum adiabatic calorimetry

O=P([O-])([O-])[O-].O=P([O-])([O-])[O-].O=P([O-])([O-])[O-].[K+].[Th+4].[Th+4] [potassium dithorium trisphosphate]
Settings	molar heat capacity at constant pressure [J/K/mol]
4 K	0.316 ± 0.013
5 K	0.395 ± 0.014
6 K	0.4889 ± 0.014
7 K	0.5352 ± 0.015
8 K	0.4432 ± 0.014
9 K	0.3222 ± 0.013
10 K	0.3252 ± 0.013
15 K	2.606 ± 0.03
20 K	6.715 ± 0.052
25 K	12.67 ± 0.07
30 K	19.97 ± 0.09
35 K	28.47 ± 0.1
40 K	37.38 ± 0.12
45 K	46.43 ± 0.14
50 K	56.01 ± 0.16
60 K	73.35 ± 0.19
70 K	91.89 ± 0.23
80 K	109.4 ± 0.3
90 K	125.4 ± 0.3
100 K	140 ± 0.3
110 K	153.5 ± 0.4
120 K	166.2 ± 0.4
130 K	178 ± 0.4
140 K	189.2 ± 0.4
150 K	199.8 ± 0.4
160 K	209.9 ± 0.4
170 K	219.6 ± 0.4
180 K	229 ± 0.4
190 K	238.2 ± 0.4
200 K	247.3 ± 0.5
210 K	256 ± 0.5
220 K	264.2 ± 0.5
230 K	271.8 ± 0.5
240 K	278.6 ± 0.5
250 K	284.7 ± 0.5
260 K	290.3 ± 0.5
270 K	295.7 ± 0.5
273.15 K	297.5 ± 0.5
280 K	301.3 ± 0.5
290 K	307.4 ± 0.5
